{"source": "patent US10369163B2", "about": "“Anti-fatigue composition” (AJINOMOTO CO., INC., priority 2013, dated 2019)", "key": {"[1]": {"system": "males feeling decrease in the quality of sleep and fatigue", "test": "Crossover test of histidine ingestion for 14 days (POMS, VAS questionnaires, CogHealth)", "assay_type": "in vivo, human", "text": "Twenty males of 45 years old to less than 65 years old, who received total evaluation of not less than 17 points in the “self-diagnosis fatigue questionnaire” (Fatigue Science Laboratory Inc.), felt decrease in the quality of sleep (generally PSQI≥6), and obtained fatigue factor T scores of not less than 60 points in POMS, performed in advance, were selected, and randomly divided into 2 groups (10 per group). A crossover test, including ingesting histidine and control food (equal volume of cellulose) each for 14 days, was performed in each group. As shown in the experiment protocol of FIG. 9A, the test subjects ingested capsules containing 1.65 g of L-histidine as a daily ingestion amount (5 capsules (hard capsule #2 WHITE OP B/C) containing 0.33 g of L-histidine alone), or control sample capsules (5 capsules containing equal volume of cellulose) for 14 days. After the completion of 14 day ingestion, a 14 day resting period was taken. After the resting period, they ingested the capsules not ingested before the resting period. On the initial day and the day after completion of the capsule ingestion period, the test subjects answered POMS and the VAS questionnaires (fatigue, depression, vague sense, drowsiness, clear thinking, motivation, attentiveness, concentration) relating to fatigue, and cognitive function measurement task CogHealth (under higher difficulty conditions by simultaneously including mental arithmetic task as well) to measure intellectual performance which is one of the fatigue indices. Furthermore, they answered VAS questionnaires after completion of CogHealth."}, "[2]": {"system": "males feeling decrease in the quality of sleep and fatigue", "test": "Single histidine ingestion (VAS questionnaires, CogHealth)", "assay_type": "in vivo, human", "text": "Twenty males of 45 years old to less than 65 years old, who received total evaluation of not less than 17 points in the “self-diagnosis fatigue questionnaire” (Fatigue Science Laboratory Inc.), felt decrease in the quality of sleep (generally PSQI≥6), and obtained fatigue factor T scores of not less than 60 points in POMS performed in advance, were selected, and randomly divided into 2 groups (10 per group). The effect of single ingestion of histidine and control food (equal volume of cellulose) was compared in each group. As shown in the experiment protocol of FIG. 10A, the test subjects took the same meals for 3 days before the experiment, fasted for 10 to for 14 hr, and ingested capsules containing 1.65 g of L-histidine as a single ingestion amount (5 capsules (hard capsule #2 WHITE OP B/C) containing 0.33 g of L-histidine alone), or control sample capsules (5 capsules containing equal volume of cellulose). Before and 1 hr after ingestion of capsules, the test subjects answered the VAS questionnaires (fatigue, depression, vague sense, drowsiness, clear thinking, motivation, attentiveness, concentration) relating to fatigue, and cognitive function measurement task CogHealth (under higher difficulty conditions by simultaneously including mental arithmetic task as well) to measure intellectual performance which is one of the fatigue indices. Furthermore, they answered VAS questionnaires after completion of CogHealth."}, "CD2F1 mice": {"system": "CD2F1 mice", "test": "Y-maze test, short-working memory (alternation behavior) after 48 hr burden of insufficient sleep", "assay_type": "in vivo, mouse", "settings": "His:VB6=360:1; His 900, VB6 2.5 mg/kg/day one week plus oral dose; FIG. 7B", "procedure": "Using CD2F1 mice (9-10-week-old) in the group constitution shown in Table 4, the test was performed as shown in the experiment protocol (FIG. 4A). The His group and His+VB6 group were allowed to drink each solution freely for one week so that the ingestion amount of His would be 900 mg/kg/day, and the ingestion amount of the VB6 group and the His+VB6 group would be […]. As the feed, a feed having the composition of Table 5 was used. After ingestion of His or VB6, or both for one week, insufficient sleep was burdened for 48 hr by filling water in the breeding cage at the depth of 0.5 cm. The burden was released at 6 hr from the start of the light phase, and the mice were placed back in the home cage and allowed to rest for 6 hr. […] A Y-maze test was performed at 3 hr from the start of the dark phase, and short-working memory was measured. […] A Y-maze test was performed at 3 hr from the start of the dark phase, and short-working memory was measured. […] A Y-maze test was performed at 3 hr from the start of the dark phase, and short-working memory was measured. […] A Y-maze test was performed at 3 hr from the start of the dark phase, and short-working memory was measured. […]"}, "[3]": {"test": "Safety of His ingestion: general properties, hematology, blood biochemistry", "assay_type": "in vivo, human", "settings": "ingestion of His (1.65 g, single or 14 days) in test subjects"}, "[4]": {"settings": "14 days, after completion of CogHealth, p<0.05, FIG. 9E"}, "[5]": {"settings": "14 days, before CogHealth, vs control food, p<0.05, FIG. 9C"}, "[6]": {"settings": "single ingestion, after completion of CogHealth"}, "[7]": {"settings": "single ingestion, before CogHealth, p<0.05, FIG. 10B"}}, "data": [{"smiles": "N[C@@H](Cc1c[nH]cn1)C(=O)O", "note": "[His, histidine]", "values": [{"measurement": "fatigue factor scores of POMS", "setting": "[1]; 1.65 g L-histidine daily for 14 days vs control food, paired t-test p<0.05, FIG. 9B", "result": "significantly decreased"}, {"measurement": "reaction time of cognitive function measurement task", "setting": "[1]; 14 days, CogHealth, vs control food, FIG. 9D", "result": "shortened"}, {"measurement": "reaction time of delayed recall task", "setting": "[1]; 14 days, CogHealth, vs control food, p<0.05, FIG. 9D", "result": "significantly decreased"}, {"measurement": "VAS sense of attentiveness", "setting": "[1]; [4]", "result": "significantly increased"}, {"measurement": "VAS sense of depression", "setting": "[1]; [4]", "result": "significantly decreased"}, {"measurement": "VAS sense of motivation", "setting": "[1]; [4]", "result": "significantly increased"}, {"measurement": "VAS sense of attentiveness", "setting": "[1]; [5]", "result": "significantly increased"}, {"measurement": "VAS sense of clear thinking", "setting": "[1]; [5]", "result": "significantly increased"}, {"measurement": "VAS sense of motivation", "setting": "[1]; [5]", "result": "significantly increased"}, {"measurement": "work time in 5 kinds of brain function measurement indices", "setting": "[2]; single 1.65 g L-histidine, 1 hr after ingestion, vs control food", "result": "shortened"}, {"measurement": "VAS sense of concentration", "setting": "[2]; [6]", "result": "tended to increase"}, {"measurement": "VAS sense of depression", "setting": "[2]; [6]", "result": "tended to decrease"}, {"measurement": "VAS vague sense", "setting": "[2]; single ingestion, after completion of CogHealth, p<0.05", "result": "significantly decreased"}, {"measurement": "VAS sense of concentration", "setting": "[2]; single ingestion, before CogHealth, FIG. 10B", "result": "tended to increase"}, {"measurement": "VAS sense of attentiveness", "setting": "[2]; [7]", "result": "significantly increased"}, {"measurement": "VAS sense of clear thinking", "setting": "[2]; [7]", "result": "significantly increased"}, {"measurement": "alternation behavior as compared to the VB6 group", "setting": "CD2F1 mice", "result": "significant increase"}, {"measurement": "variation in general properties, hematology, and blood biochemistry", "setting": "[3]", "result": "did not show problematic variation"}]}]}
